Earlier results in publication PMC4310808 (European journal of medicinal chemistry, 2014).
No end group written: not given here.

System: erythrocytes

Which “Hemolytic activity at physiological salt concentrations” value does the source give for “GIINTLQKYYCRVRGGRCAVLSCLPKEEQIGKCSTRGRKCCRRKK (also: bicyclic or more (positions not given here)) [HβD-3, Human beta defensin-3]” here?
Its value is “no hemolytic activity”.
